Measured values as given in ChEMBL document CHEMBL1131693, “Synthesis and methemoglobin toxicity of the amides of 6/7 mono or disubstituted quinolone” (1999).

Tests used:
Canis lupus familiaris = species on record: Canis lupus familiaris; assay: In vitro activity against canine methemoglobin reductase at 33 uM; set-up: unit not given here
Canis familiaris [1] = species on record: Canis familiaris; assay: In vitro activity on methemoglobin formation at 1 mM concentration in blood from a normal Beagle dog; Nil; assay type: functional
Canis familiaris [2] = species on record: Canis familiaris; assay: In vitro activity on methemoglobin formation at 5 mM concentration in blood from a normal Beagle dog; assay type: functional, Canis lupus familiaris
Canis familiaris [3] = species on record: Canis familiaris; assay: In vitro activity on methemoglobin formation at 1 mM concentration in blood from a normal Beagle dog; assay type: functional, Canis lupus familiaris
Canis familiaris [4] = species on record: Canis familiaris; assay: In vitro activity on methemoglobin formation at 5 mM concentration in blood from a normal Beagle dog; Nil; assay type: functional; details: Canis lupus familiaris

| Compound | Activity (Canis lupus familiaris) | Methemoglobin (Canis familiaris [1]; Canis lupus familiaris) | Methemoglobin (Canis familiaris [2]) [%] | Methemoglobin (Canis familiaris [1]) [%] | Methemoglobin (Canis familiaris [3]) [%] | Methemoglobin (Canis familiaris [4]) |
| --- | --- | --- | --- | --- | --- | --- |
| CCN(CC)CCCC(C)NC(=O)c1cnc2ccc([N+](=O)[O-])cc2c1O (stereo unspecified) | 0.064 | Nil | 5.17 | – | – | – |
| O=C(NC1CCCCC1)c1cnc2ccc([N+](=O)[O-])cc2c1O | 0.064 | Nil | 6.8 | – | – | – |
| CN1CCN(C(=O)c2cnc3ccc([N+](=O)[O-])cc3c2O)CC1 | 0.064 | Nil | 8.6 | – | – | – |
| O=C(NC1CCCCC1)c1cnc2ccc(F)cc2c1O | 0.064 | Nil | 1.5 | – | – | – |
| CCN(CC)CCCC(C)NC(=O)c1cnc2ccc(F)cc2c1O (stereo unspecified) | 0.064 | – | 22.4 | – | 1.7 | – |
| CN1CCN(C(=O)c2cnc3cc(Cl)c(F)cc3c2O)CC1 | 0.064 | Nil | – | – | – | Nil |
| CN1CCN(C(=O)c2cnc3ccc(F)cc3c2O)CC1 | 0.064 | Nil | 2 | – | – | – |
| O=C(NC1CCCCC1)c1cnc2cc(Cl)c(F)cc2c1O | 0.064 | Nil | – | – | – | Nil |

Now from value to molecule, other results behind:

| Activity (Canis lupus familiaris) | Compound | Methemoglobin (Canis familiaris [1]; Canis lupus familiaris) | Methemoglobin (Canis familiaris [2]) [%] | Methemoglobin (Canis familiaris [1]) [%] | Methemoglobin (Canis familiaris [3]) [%] | Methemoglobin (Canis familiaris [4]) |
| --- | --- | --- | --- | --- | --- | --- |
| 0.064 | CCCCCCCCNC(=O)c1cnc2cc(Cl)c(F)cc2c1O | – | 29.3 | 1.7 | – | – |
| 0.064 | CCCCCCCCNC(=O)c1cnc2ccc(F)cc2c1O | Nil | 18.9 | – | – | – |
| 0.064 | CCCCCCCCNC(=O)c1cnc2ccc([N+](=O)[O-])cc2c1O | Nil | 7.7 | – | – | – |
| 0.064 | CCN(CC)CCCC(C)NC(=O)c1cnc2cc(Cl)c(F)cc2c1O (stereo unspecified) | Nil | 16.9 | – | – | – |
